Laboratory results reported in BindingDB's records for doi:10.7270/Q2BG2MFK (Nmmlsc, 2010).

The compounds below were run against T1, Regulator of G-protein signaling 19 (Homo sapiens, UniProt P49795) (assay: RGS19-Galphao binding modulators, analog potency, SAR follow-up, biochemical, SAR compounds, multiplexed bead flow cytometry (AID 2311)). Conditions: not given.
T1 sequence (P49795 whole entry): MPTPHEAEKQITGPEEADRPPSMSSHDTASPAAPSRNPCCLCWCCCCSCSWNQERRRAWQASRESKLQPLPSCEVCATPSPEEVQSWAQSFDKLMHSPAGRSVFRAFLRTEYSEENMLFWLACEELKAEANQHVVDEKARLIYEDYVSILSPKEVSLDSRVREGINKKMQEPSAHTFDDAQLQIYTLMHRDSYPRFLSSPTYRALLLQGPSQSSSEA

Structure (SMILES)	EC50 [nM]
O=c1c2ccccc2sn1-c1ccccc1 [2-phenyl-1,2-benzothiazol-3-one]	> 30000
CCC(=O)NC(c1ccc(C)cc1)c1cc([N+](=O)[O-])c2cccnc2c1O (stereo unspecified) [MLS000553854]	1240
Cc1cc(Cl)ccc1/N=c1/ssnc1Cl [MLS000539990]	115
COc1ccc(C2=CC(=O)C=CC2=O)cc1 [MLS001029846]	169
NS(=O)(=O)c1ccc(N=NCc2ccc(O)c(O)c2O)c([N+](=O)[O-])c1 [4-[[(E)-(2,3-dihydroxy-4-oxo-1-cyclohexa-2,5-dienylidene)methyl]hydrazo]-3-nitrobenzenesulfonamide]	109
O=C1C(Cl)=C(N2CCCCC2)C(=O)C(Cl)=C1c1cnc(N2CCCCC2)s1 [MLS000550549]	82
Cc1cccc(N2CCN(C(=O)COc3nsc4nc(C)cc(C)c34)CC2C)c1 (stereo unspecified)	590
CCN=c1scc(C)n1N=Cc1ccc(O)c(O)c1O	378
Cc1[nH]n(-c2ccccc2)c(=S)c1/C=N/c1cccc([N+](=O)[O-])c1 [(4E)-5-methyl-4-[(3-nitroanilino)methylene]-2-phenyl-2-pyrazoline-3-thione]	> 30000
CN=c1scc(C)n1N=Cc1ccc(O)c(O)c1O [(4E)-2,3-dihydroxy-4-[[(4-methyl-2-methylimino-1,3-thiazol-3-yl)amino]methylidene]cyclohexa-2,5-dien-1-one]	209
CC1(C)OC(=O)C(=Cc2ccc(-c3ccc(S(N)(=O)=O)cc3)o2)C(=O)O1 [SMR000273939]	245
Cc1[nH]n(-c2ccccc2)c(=S)c1C=NCCCN=Cc1c(C)[nH]n(-c2ccccc2)c1=S	56
O=C(COc1ccccc1C(=O)NN=Cc1ccc(O)c(O)c1)NN=Cc1ccc(O)c(O)c1 [N''-[(Z)-(3-hydroxy-4-oxo-1-cyclohexa-2,5-dienylidene)methyl]-2-[2-[[(Z)-(3-hydroxy-4-oxo-1-cyclohexa-2,5-dienylidene)methyl]hydrazo]-2-oxoethoxy]benzohydrazide]	> 30000
CC(=O)OCCCNc1cc(Sc2nc3ccccc3s2)c2nonc2c1[N+](=O)[O-] [MLS000521052]	16
CC(NC(=O)c1sc2cc([N+](=O)[O-])ccc2c1Cl)C(C)(C)C (stereo unspecified) [3-chloranyl-N-(3,3-dimethylbutan-2-yl)-6-nitro-1-benzothiophene-2-carboxamide]	> 30000
COC(=O)CCC(=O)Nc1sc(C)c(C)c1C(N)=O [4-[(3-carbamoyl-4,5-dimethyl-2-thienyl)amino]-4-keto-butyric acid methyl ester]	> 30000
Cc1cccc(N2CCN(C(=O)Cn3sc4nc(C)cc(C)c4c3=O)CC2C)c1 (stereo unspecified) [2-[2-keto-2-[3-methyl-4-(m-tolyl)piperazino]ethyl]-4,6-dimethyl-isothiazolo[5,4-b]pyridin-3-one]	100
O=C(Cc1csc(N2CCOCC2)n1)NN=Cc1ccc(O)c(O)c1O [SMR000369439]	794
CCN(CC)S(=O)(=O)c1cccc(-c2n[nH]c(=S)n2N=Cc2ccc(C(=O)OC)cc2)c1 [4-[(E)-[3-[3-(diethylsulfamoyl)phenyl]-5-thioxo-1H-1,2,4-triazol-4-yl]iminomethyl]benzoic acid methyl ester]	> 30000
CN1CCN(C2=C(Cl)C(=O)C(c3cnc(N4CCCCC4)s3)=C(Cl)C2=O)CC1	27
O=C(NCCCN1CCOCC1)c1sc2cc([N+](=O)[O-])ccc2c1Cl [3-chloranyl-N-(3-morpholin-4-ylpropyl)-6-nitro-1-benzothiophene-2-carboxamide]	488
CCN(CC)S(=O)(=O)c1cccc(C(=O)NN=Cc2ccc(O)c(O)c2O)c1	> 30000
CCOC(=O)c1sc(NC(=O)CSc2nnc(Cc3ccccc3)o2)c(C#N)c1C [4-cyano-3-methyl-5-[[1-oxo-2-[[5-(phenylmethyl)-1,3,4-oxadiazol-2-yl]thio]ethyl]amino]-2-thiophenecarboxylic acid ethyl ester]	155
Nc1c(C(=O)NCC2CCCO2)sc2nc3c(c(-c4ccco4)c12)CC/C3=C/c1ccco1 (stereo unspecified) [UNM-0000305796]	> 30000
O=c1c2ccccc2sn1-c1ccc(S(=O)(=O)N2CCCC2)cc1 [2-(4-pyrrolidin-1-ylsulfonylphenyl)-1,2-benzothiazol-3-one]	> 30000

Same assay, conditions: inactive by the depositor's call

Structure (SMILES)	EC50 [nM]
CCOc1ccccc1-c1c2cc(O)c(=O)cc-2oc2cc(O)c(O)cc12 [MLS000578271]	4690
